Assay results as given in US10377791B2, “Therapeutically active estratrienthiazole derivatives as inhibitors of 17 B-hydroxysteroid dehydrogenase, type 1” (FORENDO PHARMA LTD, priority 2013, dated 2019).

Experiments:
[1] = human, tissue homogenate, 1 h
Description: The in vitro metabolic stability of the compounds of the invention was determined for exemplified compounds using human liver microsome and homogenate incubations. The incubation time points used with or without appropriate cofactors were 0 min and 60 min. Samples were collected at both time points and substrates were detected using LC/PDA/TOF-MS.

[2] = target: T1, recombinant human 17β-HSD2 (Homo sapiens, UniProt P37059); assay: Inhibition of recombinant human 17β-HSD2; format: biochemical; settings: inhibitor at 1 μM; 50 nM estradiol, 1 mM NADH, 30 min at RT; read-out: 17β-HSD2 Inhibition % at 1 μM
T1 construct: made in house; host or cells: Sd9 (Sf9) insect cells, baculovirus (Bac to Bac Expression System)
T1 sequence (P37059 1-387): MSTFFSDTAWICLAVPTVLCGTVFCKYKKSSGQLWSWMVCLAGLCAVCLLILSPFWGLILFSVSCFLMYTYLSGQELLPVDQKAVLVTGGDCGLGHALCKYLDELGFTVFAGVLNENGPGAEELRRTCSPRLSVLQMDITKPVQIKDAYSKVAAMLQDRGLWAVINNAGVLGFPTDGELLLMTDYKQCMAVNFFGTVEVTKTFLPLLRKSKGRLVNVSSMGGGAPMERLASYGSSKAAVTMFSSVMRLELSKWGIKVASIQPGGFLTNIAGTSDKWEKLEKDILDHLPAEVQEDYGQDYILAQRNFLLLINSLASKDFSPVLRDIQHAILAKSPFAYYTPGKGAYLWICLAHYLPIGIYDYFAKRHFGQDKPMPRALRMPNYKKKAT
Outline: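 Membrane extract of baculovirus-expressed enzyme in Sf9 cells (4 μg/ml) incubated in 20 mM KH2PO4 pH 8.5 with 50 nM estradiol (³H-tracer) and 1 mM NADH, 30 min at RT, 1% DMSO, inhibitor at 1 μM or 0.1 μM. TCA-stopped; estradiol-to-estrone conversion by radio-HPLC; % inhibition = 100 − % conversion.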

[3] = target: T2, recombinant human 17β-HSD1 (Homo sapiens, UniProt P14061); assay: Inhibition of recombinant human 17β-HSD1; format: biochemical; settings: inhibitor at 1 μM; 30 nM estrone, 1 mM NADPH, 30 min at RT; read-out: 17β-HDS1 Inhibition % at 1 μM
T2 construct: made in house; host or cells: Sd9 (Sf9) insect cells, baculovirus (Bac to Bac Expression System)
T2 sequence (P14061 1-328): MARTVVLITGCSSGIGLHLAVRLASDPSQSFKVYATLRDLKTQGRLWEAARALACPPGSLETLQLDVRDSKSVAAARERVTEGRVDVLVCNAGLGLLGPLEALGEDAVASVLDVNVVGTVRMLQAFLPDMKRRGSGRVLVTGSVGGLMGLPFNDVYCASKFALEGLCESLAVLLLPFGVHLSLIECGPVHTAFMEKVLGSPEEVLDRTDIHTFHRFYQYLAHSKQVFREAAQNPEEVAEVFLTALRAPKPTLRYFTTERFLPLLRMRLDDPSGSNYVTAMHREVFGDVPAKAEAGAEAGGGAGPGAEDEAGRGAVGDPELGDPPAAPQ
Outline: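 Microsomal enzyme from baculovirus-infected insect cells (1 μg/ml) incubated 30 min at RT in 20 mM KH2PO4 pH 7.4 with 30 nM ³H-estrone and 1 mM NADPH, inhibitor at 1 μM or 0.1 μM, 1% DMSO. TCA-stopped; estrone/estradiol separated by radio-HPLC; % inhibition = 100 − % conversion.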

SMILES: Cc1cnc(NC(=O)CC[C@@H]2CC(=O)[C@@]3(C)CCC4c5cc(Br)c(O)c(Br)c5CCC4C23)s1 (stereo partly drawn) [Compound 58, 3-((13S,15R)-2,4-dibromo-3-hydroxy-13-methyl-17-oxo-7,8,9,11,12,13,14,15,16,17-decahydro-6H-cyclopenta[a]phenanthren-15-yl)-N-(5-methylthiazol-2-yl)propanamide]
- In vitro metabolic stability, % remaining after 60 min [1]: 81%
- inhibition at 1 µM [2]: 5%
- inhibition at 1 µM [3]: 95%

SMILES: Cc1cnc(NC(=O)CC[C@@H]2CC(=O)[C@@]3(C)CCC4c5ccccc5CCC4C23)s1 (stereo partly drawn) [Compound 83, 3-((13S,15R)-13-methyl-17-oxo-7,8,9,11,12,13,14,15,16,17-decahydro-6H-cyclopenta[a]phenanthren-15-yl)-N-(5-methylthiazol-2-yl)propanamide]
- In vitro metabolic stability, % remaining after 60 min [1]: 74%
- inhibition at 1 µM [2]: 1%
- inhibition at 1 µM [3]: 92%
